Tests used:
Test in all cases: Carbonic Anhydrase I, II, IV and XII Assay
Conditions in all cases: pH 7.5; 25 °C
[1] = target: Carbonic anhydrase 1 (Homo sapiens, UniProt P00915)
Experimental: (§1) An Applied Photophysics stopped-flow instrument has been used for assaying the CA catalysed CO2 hydration activity [Khalifah et al., J. Biol. Chem., 246:2561-2573]. Phenol red (at a concentration of 0.2 mM) has been used as indicator, working at the absorbance maximum of 557 nm, with 10-20 mM Hepes (pH 7.5) as buffer, and 20 mM Na2SO4 (for maintaining constant the ionic strength), following the initial rates of the CA-catalyzed CO2 hydration reaction for a period of 10-100 s. The CO2 concentrations ranged from 1.7 to 17 mM for the determination of the kinetic parameters and inhibition constants. For each inhibitor at least six traces of the initial 5-10% of the reaction have been used for determining the initial velocity. The uncatalyzed rates were determined in the same manner and subtracted from the total observed rates. Stock solutions of inhibitor (10 mM) were prepared in distilled-deionised water and dilutions up to 0.01 nM were done thereafter with distilled-deionised water. Inhibitor and enzyme solutions were preincubated together for 15 min at room temperature prior to assay, in order to allow for the formation of the E-I complex.

[2] = target: Carbonic anhydrase 12 (Homo sapiens, UniProt O43570)
Sequence of Carbonic anhydrase 12 (O43570 whole entry): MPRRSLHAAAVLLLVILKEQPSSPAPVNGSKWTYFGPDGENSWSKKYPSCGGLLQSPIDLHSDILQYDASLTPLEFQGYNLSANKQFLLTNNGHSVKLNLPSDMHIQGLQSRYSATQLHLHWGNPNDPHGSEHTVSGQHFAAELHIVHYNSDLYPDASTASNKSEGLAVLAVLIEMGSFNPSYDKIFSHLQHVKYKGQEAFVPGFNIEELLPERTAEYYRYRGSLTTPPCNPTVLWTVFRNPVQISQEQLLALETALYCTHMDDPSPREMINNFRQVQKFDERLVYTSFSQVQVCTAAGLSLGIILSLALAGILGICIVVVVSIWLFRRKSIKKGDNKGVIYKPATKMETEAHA
Experimental: as §1

[3] = target: Carbonic anhydrase 2 (Homo sapiens, UniProt P00918)
Experimental: as §1

[4] = target: Carbonic anhydrase 4 (Homo sapiens, UniProt P22748)
Sequence of Carbonic anhydrase 4 (P22748 whole entry): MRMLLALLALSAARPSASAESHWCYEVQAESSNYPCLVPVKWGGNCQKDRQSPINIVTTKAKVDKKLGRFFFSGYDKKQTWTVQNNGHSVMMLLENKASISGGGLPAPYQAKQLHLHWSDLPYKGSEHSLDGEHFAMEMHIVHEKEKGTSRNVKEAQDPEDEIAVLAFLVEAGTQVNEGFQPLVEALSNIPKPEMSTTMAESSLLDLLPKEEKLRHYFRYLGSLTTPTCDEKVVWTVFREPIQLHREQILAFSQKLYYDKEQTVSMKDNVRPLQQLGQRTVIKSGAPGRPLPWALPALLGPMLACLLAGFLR
Experimental: as §1

Sequence of Carbonic anhydrase 1 (P00915 whole entry): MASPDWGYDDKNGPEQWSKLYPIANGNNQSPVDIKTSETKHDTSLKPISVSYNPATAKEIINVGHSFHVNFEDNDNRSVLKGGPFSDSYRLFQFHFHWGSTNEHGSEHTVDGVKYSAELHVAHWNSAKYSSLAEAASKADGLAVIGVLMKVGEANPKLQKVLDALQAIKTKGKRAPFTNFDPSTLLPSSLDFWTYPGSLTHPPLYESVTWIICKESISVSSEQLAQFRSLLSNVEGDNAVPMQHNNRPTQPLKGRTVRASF

| IC50 [1] | IC50 [2] | IC50 [3] | IC50 [4] | SMILES |
| --- | --- | --- | --- | --- |
| 0.231 µM | 0.645 µM | 0.216 µM | 0.611 µM | NS(=O)(=O)c1ccc(C(=O)NCCCN2CCOCC2)cc1 [4-Sulfamoyl-N-(3-morpholinopropyl)benzamide (I-1)] |
| 0.0577 µM | 0.517 µM | 0.0658 µM | 0.499 µM | NS(=O)(=O)c1ccc(S(=O)(=O)NCCCN2CCOCC2)cc1 [N-(3-morpholinopropyl)benzene-1,4-disulfonamide (I-2)] |
| 0.0598 µM | 0.737 µM | 0.0811 µM | 0.508 µM | CCN(CC)CCOc1ccc(CNS(=O)(=O)c2ccc(S(N)(=O)=O)cc2)cc1 [N-(4-diethylaminoethoxybenzyl)benzene-1,4-bis-sulfonamide (I-3)] |
